Measured values from patent publication US20250195530A1, “POLQ INHIBITORS” (ASTRAZENECA AB, priority 2022, published 2025).
Like-named read-outs stand apart in the source and are kept apart here.

Tests used:
DLD-1 cells = test: Inhibition of proliferation, DLD-1 BRCA2 wt control (Cell Titre Glo 3D); assay type: cell-based; conditions: Homo sapiens, read-out: POLQ PD Prolif Lumin (converted)
Procedure, shortened: (§1)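 DLD-1 BRCA2−/− and parental DLD-1 cells exposed to 10-point dose range (10 μM to 0.51 nM, 3-fold) in RPMI/10% FBS at 37 °C, with medium and compound replenished on day 6. Viability by Cell Titre Glo 3D luminescence at day 7 (DLD-1) or day 12 (BRCA2−/−); IC50 as concentration halving maximum signal.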

DLD-1 BRCA2−/− cells = test: Homologous recombination synthetic lethal inhibition of proliferation, DLD-1 BRCA2-/- (Cell Titre Glo 3D); assay type: cell-based; conditions: Homo sapiens, taken as DLD-1 BRCA2-/-, read-out: POLQ PD Prolif Lumin (converted)
Procedure, shortened: as §1

[1] = DLD-1, second proliferation column (c6), taken as DLD-1 BRCA2 wt
[2] = DLD-1, first proliferation column (c5)
[3] = DLD-1, proliferation, luminescence, second Prolif column (c6), taken as DLD-1 BRCA2 wt control
[4] = DLD-1, proliferation, luminescence

Row | Structure (SMILES) | IC50 (DLD-1 cells; [1]) [nM] | IC50 (DLD-1 BRCA2−/− cells; [2]) [nM] | IC50 (DLD-1 cells; [3]) [nM] | IC50 (DLD-1 BRCA2−/− cells; [4]) [nM]
1 | Cc1ccnc(Cn2c(-c3ccc(NC(=O)N4CC[C@@H](O)C4)cc3Cl)nc3c(OC4(C)CC4)ncnc32)c1 [Example T342, (R)-N-(3-chloro-4-(6-(1-methylcyclopropoxy)-9-((4-methylpyridin-2-yl)methyl)-9H-purin-8-yl)phenyl)-3-hydroxypyrrolidine-1-carboxamide] | > 10000 | > 3980 | – | –
2 | CC1(Oc2ncnc3c2nc(-c2ccc(OCCN4CCNCC4)cc2Cl)n3Cc2nccc(Cl)c2F)CC1 [Example T345, 9-((4-chloro-3-fluoropyridin-2-yl)methyl)-8-(2-chloro-4-(2-(piperazin-1-yl)ethoxy)phenyl)-6-(1-methylcyclopropoxy)-9H-purine] | 10000 | 794 | – | –
3 | CC1(Oc2ncnc3c2nc(-c2ccc(OCCN4CCNCC4)cc2Cl)n3Cc2cc(Cl)c(F)cn2)CC1 [Example T346, 8-(2-chloro-4-(2-(piperazin-1-yl)ethoxy)phenyl)-9-((4-chloro-5-fluoropyridin-2-yl)methyl)-6-(1-methylcyclopropoxy)-9H-purine] | > 10000 | 1580 | – | –
4 | CC1(Oc2ncnc3c2nc(-c2ccc(OCCCN4CC(O)C4)cc2Cl)n3Cc2cc(Cl)ccn2)CC1 [Example T347, 1-(3-(3-chloro-4-(9-((4-chloropyridin-2-yl)methyl)-6-(1-methylcyclopropoxy)-9H-purin-8-yl)phenoxy)propyl)azetidin-3-ol] | > 7940 | 158 | – | –
5 | CC1(Oc2ncnc3c2nc(-c2ccc(OCCN4CCNCC4)cc2Br)n3Cc2cc(Cl)ccn2)CC1 [Example T348, 8-(2-bromo-4-(2-(piperazin-1-yl)ethoxy)phenyl)-9-((4-chloropyridin-2-yl)methyl)-6-(1-methylcyclopropoxy)-9H-purine] | > 10000 | 126 | – | –
6 | CC1(Oc2ncnc3c2nc(-c2ccc(OCCN4CCNCC4)cc2F)n3Cc2cc(Cl)ccn2)CC1 [Example T349, 9-((4-chloropyridin-2-yl)methyl)-8-(2-fluoro-4-(2-(piperazin-1-yl)ethoxy)phenyl)-6-(1-methylcyclopropoxy)-9H-purine] | > 10000 | 631 | – | –
7 | CN(C)CCCOc1ccc(-c2nc3c(OC4(C)CC4)ncnc3n2Cc2cc(C(F)F)ccn2)c(Cl)c1 [Example T352, 3-(3-chloro-4-(9-((4-(difluoromethyl)pyridin-2-yl)methyl)-6-(1-methylcyclopropoxy)-9H-purin-8-yl)phenoxy)-N,N-dimethylpropan-1-amine] | > 10000 | 158 | – | –
8 | Cc1ccnc(Cn2c(-c3ccc(CN4CC[C@@H](O)C4)cc3Cl)nc3c(OC4(C)CC4)ncnc32)c1 [Example T353, (R)-1-(3-chloro-4-(6-(1-methylcyclopropoxy)-9-((4-methylpyridin-2-yl)methyl)-9H-purin-8-yl)benzyl)pyrrolidin-3-ol] | > 10000 | 316 | – | –
9 | Cc1ccnc(Cn2c(-c3ccc(OC4CCNCC4)cc3Cl)nc3c(OC4(C)CC4)ncnc32)c1 [Example T354, 8-(2-chloro-4-(piperidin-4-yloxy)phenyl)-6-(1-methylcyclopropoxy)-9-((4-methylpyridin-2-yl)methyl)-9H-purine] | > 10000 | 501 | – | –
10 | Cc1ccnc(Cn2c(-c3ccc(CCN4CC(O)C4)cc3Cl)nc3c(OC4(C)CC4)ncnc32)c1 [Example T355, 1-(3-chloro-4-(6-(1-methylcyclopropoxy)-9-((4-methylpyridin-2-yl)methyl)-9H-purin-8-yl)phenethyl)azetidin-3-ol] | > 10000 | 631 | – | –
11 | Cc1ccnc(Cn2c(-c3ccc(OC[C@H]4CCCN4)cc3Cl)nc3c(OC4(C)CC4)ncnc32)c1 [Example T356, (R)-8-(2-chloro-4-(pyrrolidin-2-ylmethoxy)phenyl)-6-(1-methylcyclopropoxy)-9-((4-methylpyridin-2-yl)methyl)-9H-purine] | > 10000 | 200 | – | –
12 | Cc1ccnc(Cn2c(-c3ccc(CC(=O)NC(C)C)cc3Cl)nc3c(OC4(C)CC4)ncnc32)c1 [Example T357, 2-(3-chloro-4-(6-(1-methylcyclopropoxy)-9-((4-methylpyridin-2-yl)methyl)-9H-purin-8-yl)phenyl)-N-isopropylacetamide] | > 10000 | 398 | – | –
13 | Cc1cnc(Cn2c(-c3ccc(OC4CC5(C4)CN(C)C5)cc3Cl)nc3c(OC4(C)CC4)ncnc32)s1 [Example T359, 2-((8-(2-chloro-4-((2-methyl-2-azaspiro[3.3]heptan-6-yl)oxy)phenyl)-6-(1-methylcyclopropoxy)-9H-purin-9-yl)methyl)-5-methylthiazole] | > 10000 | 501 | – | –
14 | Cc1ccnc(Cn2c(-c3cccc(OCCN4CC(O)C4)c3Cl)nc3c(OC4(C)CC4)ncnc32)c1 [Example T360, 1-(2-(2-chloro-3-(6-(1-methylcyclopropoxy)-9-((4-methylpyridin-2-yl)methyl)-9H-purin-8-yl)phenoxy)ethyl)azetidin-3-ol] | > 10000 | 794 | – | –
15 | Cc1ccnc(Cn2c(-c3ccc(C(=O)NCC(C)(C)O)cc3Cl)nc3c(OC4(C)CC4)ncnc32)c1 [Example T363, 3-chloro-N-(2-hydroxy-2-methylpropyl)-4-(6-(1-methylcyclopropoxy)-9-((4-methylpyridin-2-yl)methyl)-9H-purin-8-yl)benzamide] | > 10000 | 794 | – | –
16 | Cc1ccnc(Cn2c(-c3ccc(CC(=O)N(C)CCO)cc3Cl)nc3c(OC4(C)CC4)ncnc32)c1 [Example T369, 2-(3-chloro-4-(6-(1-methylcyclopropoxy)-9-((4-methylpyridin-2-yl)methyl)-9H-purin-8-yl)phenyl)-N-(2-hydroxyethyl)-N-methylacetamide] | > 10000 | 1000 | – | –
17 | Cc1ccnc(Cn2c(-c3ccc(CC(=O)NC[C@H](C)O)cc3Cl)nc3c(OC4(C)CC4)ncnc32)c1 [Example T371, (S)-2-(3-chloro-4-(6-(1-methylcyclopropoxy)-9-((4-methylpyridin-2-yl)methyl)-9H-purin-8-yl)phenyl)-N-(2-hydroxypropyl)acetamide] | > 10000 | 1000 | – | –
18 | CN(C)CCCOc1ccc(-c2nc3c(OC4(C)CC4)nccc3n2Cc2cc(Cl)ccn2)c(Cl)c1 [Example T377, 3-(3-chloro-4-(1-((4-chloropyridin-2-yl)methyl)-4-(1-methylcyclopropoxy)-1H-imidazo[4,5-c]pyridin-2-yl)phenoxy)-N,N-dimethylpropan-1-amine] | > 7940 | 158 | – | –
19 | CC1(Oc2ncnc3c2nc(-c2ccc(OCCN4CCNCC4)cc2Cl)n3Cc2ccnc(Cl)c2)CC1 [Example T378, 8-(2-chloro-4-(2-(piperazin-1-yl)ethoxy)phenyl)-9-((2-chloropyridin-4-yl)methyl)-6-(1-methylcyclopropoxy)-9H-purine] | > 10000 | 1580 | – | –
20 | CC1(Oc2ncnc3c2nc(-c2ccc(OCCN4CCNCC4)cc2Cl)n3Cc2cncc(Cl)c2)CC1 [Example T379, 8-(2-chloro-4-(2-(piperazin-1-yl)ethoxy)phenyl)-9-((5-chloropyridin-3-yl)methyl)-6-(1-methylcyclopropoxy)-9H-purine] | > 10000 | 251 | – | –
21 | CC1(Oc2ncnc3c2nc(-c2ccc(OCCN4CCN(S(=O)(=O)O)CC4)cc2Cl)n3Cc2cc(Cl)ccn2)CC1 [Example T380, 4-(2-(3-chloro-4-(9-((4-chloropyridin-2-yl)methyl)-6-(1-methylcyclopropoxy)-9H-purin-8-yl)phenoxy)ethyl)piperazine-1-sulfonic acid] | > 10000 | 7940 | – | –
22 | Cc1ccnc(Cn2c(-c3ccc(OCCC(C)(C)O)cc3Cl)nc3c(OC4(C)CC4)ncnc32)c1 [Example T382, 4-(3-chloro-4-(6-(1-methylcyclopropoxy)-9-((4-methylpyridin-2-yl)methyl)-9H-purin-8-yl)phenoxy)-2-methylbutan-2-ol] | > 10000 | 100 | – | –
23 | Cc1ccnc(Cn2c(-c3ccc(OCCCN(C)C)cc3Cl)nc3c(OC4(C)CC4)ncnc32)c1 [Example T385, 3-(3-chloro-4-(6-(1-methylcyclopropoxy)-9-((4-methylpyridin-2-yl)methyl)-9H-purin-8-yl)phenoxy)-N,N-dimethylpropan-1-amine] | > 10000 | 79.4 | – | –
24 | Cc1ccnc(Cn2c(-c3cccc(OCCCN(C)C)c3Cl)nc3c(OC4(C)CC4)ncnc32)c1 [Example T386, 3-(2-chloro-3-(6-(1-methylcyclopropoxy)-9-((4-methylpyridin-2-yl)methyl)-9H-purin-8-yl)phenoxy)-N,N-dimethylpropan-1-amine] | > 10000 | 100 | – | –
25 | Cc1cnc(Cn2c(-c3ccc(OCCCN4CCCC4)cc3Cl)nc3c(OC4(C)CC4)ncnc32)s1 [Example T388, 2-((8-(2-chloro-4-(3-(pyrrolidin-1-yl)propoxy)phenyl)-6-(1-methylcyclopropoxy)-9H-purin-9-yl)methyl)-5-methylthiazole] | > 10000 | 251 | – | –
26 | Cc1cnc(Cn2c(-c3ccc(OCCCN4CC[C@@H](O)C4)cc3Cl)nc3c(OC4(C)CC4)ncnc32)s1 [Example T391, (R)-1-(3-(3-chloro-4-(6-(1-methylcyclopropoxy)-9-((5-methylthiazol-2-yl)methyl)-9H-purin-8-yl)phenoxy)propyl)pyrrolidin-3-ol] | – | – | > 10000 | 501
27 | Cc1cnc(Cn2c(-c3cccc(OCCCN4CC[C@@H](O)C4)c3Cl)nc3c(OC4(C)CC4)ncnc32)s1 [Example T392, (R)-1-(3-(2-chloro-3-(6-(1-methylcyclopropoxy)-9-((5-methylthiazol-2-yl)methyl)-9H-purin-8-yl)phenoxy)propyl)pyrrolidin-3-ol] | – | – | 794 | 794
